Reference: PubChem BioAssay AID1259407 (Chemical Carcinogenesis Research Information System (CCRIS), 2018)
Activity calls are given as the source filed them. The rule behind the calls is not given here.

System: CCRIS mutagenicity, Ames/micronucleus/aberration tests
Test: CCRIS mutagenicity studies
[1] = Test System: AMES SALMONELLA TYPHIMURIUM, Strain/Indicator: TA100, Metabolic Activation: NONE, Method: STANDARD PLATE

## COc1cc(-c2ccc(N)c(OC)c2)ccc1N
End Point: IN VITRO CHROMOSOMAL ABERRATIONS, Test System: CHL CELLS, Metabolic Activation: RAT, LIVER, S-9, SODIUM PHENOBARBITAL AND 5,6-BENZOFLAVONE
  mutagenic call: active; positive (structural changes); precipitation of test chemical observed above 0.6
Test System: AMES SALMONELLA TYPHIMURIUM, Strain/Indicator: SV50, Metabolic Activation: NONE, Method: PREINCUBATION (PRIVAL METHOD)
  mutagenic call: inactive; negative
Test System: AMES SALMONELLA TYPHIMURIUM, Strain/Indicator: SV50, Metabolic Activation: RAT, LIVER, S-9, AROCLOR 1254, Method: STANDARD PLATE
  mutagenic call: inactive; negative
Test System: AMES SALMONELLA TYPHIMURIUM, Strain/Indicator: TA98(1,8-DNP6), Metabolic Activation: NONE, Method: STANDARD PLATE
  mutagenic call: inactive; negative
Test System: AMES SALMONELLA TYPHIMURIUM, Strain/Indicator: TA98(1,8-DNP6), Metabolic Activation: S-9, Method: STANDARD PLATE
  mutagenic call: active; positive
Test System: AMES SALMONELLA TYPHIMURIUM, Strain/Indicator: TA98, Metabolic Activation: HAMSTER, LIVER, S-9, AROCLOR 1254, Method: PREINCUBATION
  mutagenic call: active; positive
Test System: AMES SALMONELLA TYPHIMURIUM, Strain/Indicator: TA98, Metabolic Activation: HAMSTER, LIVER, S-9, Method: PREINCUBATION (PRIVAL METHOD)
  mutagenic call: inactive; negative
Test System: AMES SALMONELLA TYPHIMURIUM, Strain/Indicator: TA98, Metabolic Activation: RAT LIVER S-9, AROCLOR 1254, Method: PREINCUBATION
  mutagenic call: active; positive
Test System: AMES SALMONELLA TYPHIMURIUM, Strain/Indicator: TA98, Metabolic Activation: RAT LIVER S-9, PHENOBARBITAL AND BETA-NAPHTHOFLAVONE, Method: PREINCUBATION
  mutagenic call: active; positive
Test System: AMES SALMONELLA TYPHIMURIUM, Strain/Indicator: TA98, Metabolic Activation: RAT, LIVER, S-9, AROCLOR 1254, Method: PREINCUBATION
  mutagenic call: active; positive
Test System: AMES SALMONELLA TYPHIMURIUM, Strain/Indicator: TA98, Metabolic Activation: RAT, LIVER, S-9, AROCLOR 1254, Method: STANDARD PLATE
  mutagenic call: active; positive
Test System: AMES SALMONELLA TYPHIMURIUM, Strain/Indicator: TA98, Metabolic Activation: RAT, LIVER, S-9, PCB, Method: PREINCUBATION
  mutagenic call: active; positive
Test System: AMES SALMONELLA TYPHIMURIUM, Strain/Indicator: TA98, Metabolic Activation: S-9, Method: STANDARD PLATE
  mutagenic call: active; positive
Test System: AMES SALMONELLA TYPHIMURIUM, Strain/Indicator: TA100, Metabolic Activation: HAMSTER, LIVER, S-9, AROCLOR 1254, Method: PREINCUBATION
  mutagenic call: inactive; negative
Test System: AMES SALMONELLA TYPHIMURIUM, Strain/Indicator: TA100, Metabolic Activation: NONE, Method: PREINCUBATION
  mutagenic call: inactive; negative
[1]
  mutagenic call: inactive; negative
Test System: AMES SALMONELLA TYPHIMURIUM, Strain/Indicator: TA100, Metabolic Activation: RAT LIVER S-9, AROCLOR 1254, Method: PREINCUBATION
  mutagenic call: active; positive
Test System: AMES SALMONELLA TYPHIMURIUM, Strain/Indicator: TA100, Metabolic Activation: RAT LIVER S-9, PHENOBARBITAL AND BETA-NAPHTHOFLAVONE, Method: PREINCUBATION
  mutagenic call: inactive; negative
Test System: AMES SALMONELLA TYPHIMURIUM, Strain/Indicator: TA100, Metabolic Activation: RAT, LIVER, S-9, AROCLOR 1254, Method: PREINCUBATION
  mutagenic call: active; positive
Test System: AMES SALMONELLA TYPHIMURIUM, Strain/Indicator: TA100, Metabolic Activation: RAT, LIVER, S-9, PCB, Method: PREINCUBATION
  mutagenic call: active; positive
Test System: AMES SALMONELLA TYPHIMURIUM, Strain/Indicator: TA100, Metabolic Activation: S-9, Method: STANDARD PLATE
  mutagenic call: inactive; negative
Test System: AMES SALMONELLA TYPHIMURIUM, Strain/Indicator: TA1535, Metabolic Activation: NONE, Method: PREINCUBATION
  mutagenic call: inactive; negative
Test System: AMES SALMONELLA TYPHIMURIUM, Strain/Indicator: TA1535, Metabolic Activation: RAT, LIVER, S-9, AROCLOR 1254, Method: PREINCUBATION
  mutagenic call: inactive; negative
Test System: AMES SALMONELLA TYPHIMURIUM, Strain/Indicator: TA1535, Metabolic Activation: RAT, LIVER, S-9, AROCLOR 1254, Method: STANDARD PLATE
  mutagenic call: active; positive
Test System: AMES SALMONELLA TYPHIMURIUM, Strain/Indicator: TA1537, Metabolic Activation: HAMSTER, LIVER, S-9, AROCLOR 1254, Method: PREINCUBATION
  mutagenic call: inactive; negative
Test System: AMES SALMONELLA TYPHIMURIUM, Strain/Indicator: TA1537, Metabolic Activation: NONE, Method: PREINCUBATION
  mutagenic call: inactive; negative
Test System: AMES SALMONELLA TYPHIMURIUM, Strain/Indicator: TA1537, Metabolic Activation: RAT LIVER S-9, PHENOBARBITAL AND BETA-NAPHTHOFLAVONE, Method: PREINCUBATION
  mutagenic call: inactive; negative
Test System: AMES SALMONELLA TYPHIMURIUM, Strain/Indicator: TA1537, Metabolic Activation: RAT, LIVER, S-9, AROCLOR 1254, Method: PREINCUBATION
  mutagenic call: inactive; negative
Test System: AMES SALMONELLA TYPHIMURIUM, Strain/Indicator: TA1538, Metabolic Activation: HAMSTER, LIVER, S-9, Method: STANDARD PLATE
  mutagenic call: active; positive
Test System: AMES SALMONELLA TYPHIMURIUM, Strain/Indicator: TA1538, Metabolic Activation: RAT, LIVER, S-9, AROCLOR 1254, Method: STANDARD PLATE
  mutagenic call: active; positive
Test System: AMES SALMONELLA TYPHIMURIUM, Strain/Indicator: TA1538, Metabolic Activation: RAT, LIVER, S-9, PHENOBARBITAL, Method: STANDARD PLATE
  mutagenic call: active; positive
Test System: Ames Salmonella typhimurium, Strain/Indicator: TA98, Metabolic Activation: Rat, Liver, S-9, Sodium phenobarbitone, Method: Preincubation
  mutagenic call: active; positive, test conducted under both aerobic and anaerobic conditions.
Test System: Ames Salmonella typhimurium, Strain/Indicator: TA102, Metabolic Activation: None, Method: Preincubation
  mutagenic call: inactive; negative
Test System: Ames Salmonella typhimurium, Strain/Indicator: TA102, Metabolic Activation: Rat, Liver, S-9, Aroclor 1254, 4%, Method: Preincubation
  mutagenic call: active; positive
Test System: Ames Salmonella typhimurium, Strain/Indicator: TA1538, Metabolic Activation: Rat, Liver, S-9, Sodium phenobarbitone, Method: Preincubation
  mutagenic call: active; positive, test conducted under both aerobic and anaerobic conditions.
Test System: MOUSE LYMPHOMA, Strain/Indicator: L5178Y (TK+/TK-), Metabolic Activation: NONE, Method: SUSPENSION/PLATE
  mutagenic call: active; positive
Test System: MOUSE LYMPHOMA, Strain/Indicator: L5178Y (TK+/TK-), Metabolic Activation: RAT, LIVER, S-9, AROCLOR 1254, Method: SUSPENSION/PLATE
  mutagenic call: active; positive
Test System: UDS HUMAN CELLS, Strain/Indicator: THY INCORP (NON-S-PHASE), Metabolic Activation: RAT, LIVER, S-9, PHENOBARBITAL, Method: LIQUID SCINTILLATION COUNTING
  mutagenic call: active; positive

## CC(Br)C(=O)NCc1ccc(Cl)cc1 (configuration not stated)
Test System: AMES SALMONELLA TYPHIMURIUM, Strain/Indicator: TA100, Metabolic Activation: MOUSE, LIVER, S-9, AROCLOR 1254, Method: STANDARD PLATE
  mutagenic call: active; positive
[1]
  mutagenic call: active; positive

## O=P(OCCC(Br)CBr)(OCCC(Br)CBr)OCCC(Br)CBr (configuration not stated)
Test System: AMES SALMONELLA TYPHIMURIUM, Strain/Indicator: TA100, Metabolic Activation: RAT, LIVER, MICROSOMES, PHENOBARBITAL, Method: PREINCUBATION
  mutagenic call: inactive; negative
Test System: AMES SALMONELLA TYPHIMURIUM, Strain/Indicator: TA100, Metabolic Activation: RAT, LIVER, MICROSOMES, Method: PREINCUBATION
  mutagenic call: inactive; negative
